Reference: US20260042755A1, “GPR6 INVERSE AGONISTS” (MapLight Therapeutics, Inc., priority 2022, published 2026)

Tests used:
GPR6 = biological target: T1, GPR6 (Homo sapiens, UniProt P46095); assay: GPR6 antagonist functional cAMP assay (LANCE Ultra cAMP TR-FRET, CHO cells stably expressing GPR6); assay type: cell-based
T1 construct: expressed in transfected cells; host or cells: CHO cells
Outline: (§1)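 Compounds, at 0.1% final DMSO, acted on the cells for 45 minutes at 37 °C in the presence of the phosphodiesterase inhibitor Ro 20-1724 (150 μM). After lysis and detection, plates were shaken 1 h at room temperature and emission at 665 nm was recorded. Normalized data gave IC50 values.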

GPR3 = biological target: T2, GPR3 (Homo sapiens, UniProt P46089); assay: GPR3 antagonist functional cAMP assay (LANCE Ultra cAMP TR-FRET, CHO cells stably expressing GPR3); assay type: cell-based
T2 construct: expressed in transfected cells; host or cells: CHO cells
Outline: as §1

[1] = procedure as described in Example 24
[2] = CHO cells stably expressing GPR6, cAMP assay (Example 24)
[3] = CHO cells stably expressing GPR3, cAMP assay (Example 24)
[4] = CHO cells stably expressing GPR6, cAMP assay
[5] = CHO cells stably expressing GPR3, cAMP assay

T1 sequence (P46095 whole entry): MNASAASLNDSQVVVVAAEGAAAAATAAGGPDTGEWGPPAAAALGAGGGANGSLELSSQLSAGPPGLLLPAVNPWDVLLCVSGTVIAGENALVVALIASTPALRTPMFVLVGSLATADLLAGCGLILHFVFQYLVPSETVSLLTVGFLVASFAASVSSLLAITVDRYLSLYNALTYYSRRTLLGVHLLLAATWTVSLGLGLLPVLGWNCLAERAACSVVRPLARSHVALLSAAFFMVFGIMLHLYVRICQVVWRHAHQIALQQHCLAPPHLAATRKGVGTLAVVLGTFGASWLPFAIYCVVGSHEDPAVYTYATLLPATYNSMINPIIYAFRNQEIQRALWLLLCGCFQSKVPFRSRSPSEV
T2 sequence (P46089 whole entry, species assumed): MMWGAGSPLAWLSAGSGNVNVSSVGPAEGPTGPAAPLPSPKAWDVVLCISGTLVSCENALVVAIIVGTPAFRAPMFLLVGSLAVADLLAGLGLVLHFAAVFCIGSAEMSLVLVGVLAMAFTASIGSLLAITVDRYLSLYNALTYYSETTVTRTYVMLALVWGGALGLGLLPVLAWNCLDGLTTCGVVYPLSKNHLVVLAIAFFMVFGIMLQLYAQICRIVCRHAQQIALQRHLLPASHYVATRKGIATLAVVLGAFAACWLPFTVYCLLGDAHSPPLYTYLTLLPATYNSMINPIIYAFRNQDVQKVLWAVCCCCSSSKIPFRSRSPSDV

SMILES | IC50 (GPR6; [2]) | IC50 (GPR3; [3]) | other results
CC(=O)N1CCc2nc(N3CCC(Cc4ccc(F)cc4F)CC3)c(-c3cnn(C)c3)nc2C1 [Compound 375, 1-(2-{4-[(2,4-difluorophenyl)methyl]piperidin-1-yl}-3-(1-methyl-1H-pyrazol-4-yl)-5H,6H,7H,8H-pyrido[3,4-b]pyrazin-6-yl)ethan-1-one] |  |  | IC50 (GPR6; procedure of Example 24): < 100 nM; IC50 (GPR3; procedure of Example 24): 100 to 1000 nM
COc1cccc(-c2nc3cnccc3nc2N2CCN(Cc3ccc(S(C)(=O)=O)cc3F)CC2)n1 [Compound 29, 1-[(2-fluoro-4-methanesulfonylphenyl)methyl]-4-[3-(6-methoxypyridin-2-yl)pyrido[3,4-b]pyrazin-2-yl]piperazine] |  |  | IC50 (GPR6; [1]): 1000 to 30000 nM; IC50 (GPR3; [1]): 100 to 1000 nM
CCS(=O)(=O)N1CCc2nc(N3CCC(Oc4ccc(F)cc4F)CC3)c(-c3cn[nH]c3)nc2C1 [Compound 123, 4-(2,4-difluorophenoxy)-1-[6-(ethanesulfonyl)-3-(1H-pyrazol-4-yl)-5H,6H,7H,8H-pyrido[3,4-b]pyrazin-2-yl]piperidine] | 100 to 1000 nM | 1000 to 30000 nM | 
COC(=O)N1CCc2nc(N3CCC(Oc4ccc(F)cc4F)CC3)c(-c3ccc(F)c(N)n3)nc2C1 [Compound 611, 6-{2-[4-(2,4-difluorophenoxy)-1-piperidyl]-6-methoxycarbonyl-5,6,7,8-tetrahydro-1,4,6-triaza-3-naphthyl}-3-fluoro-2-pyridylamine] |  |  | IC50 (GPR6; procedure of Example 24): < 100 nM; IC50 (GPR3; procedure of Example 24): 1000 to 30000 nM
Fc1ccc(CN2CCN(c3nc4ccncc4nc3-c3cn[nH]c3)CC2)c(F)c1 [Compound 52, 1-[(2,4-difluorophenyl)methyl]-4-[3-(1H-pyrazol-4-yl)pyrido[3,4-b]pyrazin-2-yl]piperazine] |  |  | IC50 (GPR6; [1]): 100 to 1000 nM; IC50 (GPR3; [1]): 1000 to 30000 nM
Cn1cc(-c2nc3cnc(Cl)cc3nc2N2CCC(Oc3ccc(F)cc3F)CC2)cn1 [Compound 289, 7-chloro-2-(4-(2,4-difluorophenoxy)piperidin-1-yl)-3-(1-methyl-1H-pyrazol-4-yl)pyrido[3,4-b]pyrazine] |  |  | IC50 (GPR6; procedure of Example 24): 1000 to 30000 nM; IC50 (GPR3; procedure of Example 24): 1000 to 30000 nM
COc1cc(-c2nc3c(nc2N2CCC(Oc4ccc(F)cc4F)CC2)CCN(C(C)=O)C3)ccn1 [Compound 20, 1-{2-[4-(2,4-difluorophenoxy)piperidin-1-yl]-3-(2-methoxypyridin-4-yl)-5H,6H,7H,8H-pyrido[3,4-b]pyrazin-6-yl}ethan-1-one] |  |  | IC50 (GPR6; [1]): 100 to 1000 nM; IC50 (GPR3; [1]): 1000 to 30000 nM
CC(=O)N1CCc2nc(N3CCC(=Cc4ccc(F)cc4)CC3)c(-c3cnn(C)c3)nc2C1 [Compound 560, 1-(2-{4-[(p-fluorophenyl)methylene]-1-piperidyl}-3-(1-methyl-4-pyrazolyl)-5,6,7,8-tetrahydro-1,4,6-triaza-6-naphthyl)-1-ethanone] |  |  | IC50 (GPR6; [4]): < 100 nM; IC50 (GPR3; [5]): 100 to 1000 nM
CCn1cc(-c2nc3cnc(CC(C)(C)O)cc3nc2N2CCC(Oc3ccc(F)cc3F)CC2)cn1 [Compound 706, 1-{2-[4-(2,4-difluorophenoxy)-1-piperidyl]-3-(1-ethyl-4-pyrazolyl)-1,4,6-triaza-7-naphthyl}-2-methyl-2-propanol] |  |  | IC50 (GPR6; procedure of Example 24): 100 to 1000 nM; IC50 (GPR3; procedure of Example 24): 1000 to 30000 nM
CC(=O)N1Cc2nc(-c3cnn(C)c3)c(N3CCC(Oc4ccc(F)cc4F)CC3)nc2CC1C (single isomer, unassigned) [Compound 446] | 100 to 1000 nM | 1000 to 30000 nM | 
CC(C)(O)C(=O)N1CCc2nc(N3CCC(Oc4ccc(F)cc4F)CC3)c(-c3cn[nH]c3)nc2C1 [Compound 175, 1-{2-[4-(2,4-difluorophenoxy)piperidin-1-yl]-3-(1H-pyrazol-4-yl)-5H,6H,7H,8H-pyrido[3,4-b]pyrazin-6-yl}-2-hydroxy-2-methylpropan-1-one] | 100 to 1000 nM | 1000 to 30000 nM | 
Fc1ccc(CN2CCN(c3nc4cnccc4nc3-c3ncc[nH]3)CC2)c(Cl)c1 [Compound 65, 1-[(2-chloro-4-fluorophenyl)methyl]-4-[2-(1H-imidazol-2-yl)pyrido[3,4-b]pyrazin-3-yl]piperazine] | 1000 to 30000 nM | 100 to 1000 nM | 
CS(=O)(=O)c1ccc(CN2CCN(c3nc4ccncc4nc3-c3cn[nH]c3)CC2)c(F)c1 [Compound 22, 1-[(2-fluoro-4-methanesulfonylphenyl)methyl]-4-[3-(1H-pyrazol-4-yl)pyrido[3,4-b]pyrazin-2-yl]piperazine] |  |  | IC50 (GPR6; [1]): ≥ 30000 nM; IC50 (GPR3; [1]): 100 to 1000 nM
CC(C)(O)C(C)(O)c1cc2nc(N3CCN(Cc4ccccc4F)CC3)c(-c3cnn(CF)c3)nc2cn1 (stereo not drawn) [Compound 622, 2-{3-[1-(fluoromethyl)-4-pyrazolyl]-2-{4-[(o-fluorophenyl)methyl]-1-piperazinyl}-1,4,6-triaza-7-naphthyl}-3-methyl-2,3-butanediol] |  |  | IC50 (GPR6; procedure of Example 24): 100 to 1000 nM; IC50 (GPR3; procedure of Example 24): 1000 to 30000 nM
CC(=O)N1CCc2nc(N3CCN(Cc4cn(C)cn4)CC3)c(-c3cnn(C)c3)nc2C1 [Compound 528, 1-(2-{4-[(1-methyl-4-imidazolyl)methyl]-1-piperazinyl}-3-(1-methyl-4-pyrazolyl)-5,6,7,8-tetrahydro-1,4,6-triaza-6-naphthyl)-1-ethanone] |  |  | IC50 (GPR6; [4]): ≥ 30000 nM; IC50 (GPR3; [5]): ≥ 30000 nM
CC(C)(O)C(O)c1cc2nc(-c3cnn(CF)c3)c(N3CCC(Oc4ccc(F)cc4F)CC3)nc2cn1 (single isomer, unassigned) [Compound 592] |  |  | IC50 (GPR6; [4]): < 100 nM; IC50 (GPR3; [5]): 100 to 1000 nM
Cn1cc(-c2nc3cnc(C(O)C(C)(C)O)cc3nc2N2CCC(Oc3ccc(F)cc3F)CC2)cn1 (stereo not drawn) [Compound 263, 1-(2-(4-(2,4-difluorophenoxy)piperidin-1-yl)-3-(1-methyl-1H-pyrazol-4-yl)pyrido[3,4-b]pyrazin-7-yl)-2-methylpropane-1,2-diol] | 100 to 1000 nM | 1000 to 30000 nM | 
CC(=O)N1CCc2nc(N3CCC(Oc4ccc(F)cc4F)CC3)c(-c3cnn(CCN(C)C)c3)nc2C1 [Compound 138, 1-{2-[4-(2,4-difluorophenoxy)piperidin-1-yl]-3-{1-[2-(dimethylamino)ethyl]-1H-pyrazol-4-yl}-5H,6H,7H,8H-pyrido[3,4-b]pyrazin-6-yl}ethan-1-one] | 1000 to 30000 nM | 1000 to 30000 nM | 
COC[C@@H]1CN(Cc2ccc(F)cc2F)CCN1c1nc2c(nc1-c1cnn(C)c1)CN(C(C)=O)CC2 (single isomer, unassigned) [Compound 244] | 1000 to 30000 nM | 1000 to 30000 nM | 
CC(=O)N1CCc2nc(N3CCC(Oc4ccc(F)cc4F)CC3)c(-c3cccc(CO)n3)nc2C1 [Compound 133, 1-(2-(4-(2,4-difluorophenoxy)piperidin-1-yl)-3-(6-(hydroxymethyl)pyridin-2-yl)-7,8-dihydropyrido[3,4-b]pyrazin-6(5H)-yl)ethan-1-one] | 1000 to 30000 nM | 1000 to 30000 nM | 
CC(C)(O)C(C)(O)c1cc2nc(N3CCN(Cc4ccccc4F)CC3)c(-c3cnn(C(F)F)c3)nc2cn1 (stereo not drawn) [Compound 634, 2-{3-[1-(difluoromethyl)-4-pyrazolyl]-2-{4-[(o-fluorophenyl)methyl]-1-piperazinyl}-1,4,6-triaza-7-naphthyl}-3-methyl-2,3-butanediol] |  |  | IC50 (GPR6; procedure of Example 24): 100 to 1000 nM; IC50 (GPR3; procedure of Example 24): 1000 to 30000 nM
COCC(=O)N1CCc2nc(N3CCC(Oc4ccc(F)cc4F)CC3)c(-c3cn[nH]c3)nc2C1 [Compound 148, 1-{2-[4-(2,4-difluorophenoxy)piperidin-1-yl]-3-(1H-pyrazol-4-yl)-5H,6H,7H,8H-pyrido[3,4-b]pyrazin-6-yl}-2-methoxyethan-1-one] | < 100 nM | 1000 to 30000 nM | 
Cn1cc(-c2nc3cnc([C@@](C)(O)C(C)(C)O)cc3nc2N2CCC(Oc3ccc(F)cc3F)CC2)cn1 (single isomer, unassigned) [Compound 672] |  |  | IC50 (GPR6; procedure of Example 24): 100 to 1000 nM; IC50 (GPR3; procedure of Example 24): 1000 to 30000 nM

More lines, main results first:

IC50 (GPR6; [2]) | IC50 (GPR3; [3]) | SMILES | other results
1000 to 30000 nM | 1000 to 30000 nM | CC(=O)N1CCc2nc(N3CCC(Oc4c(F)ccc(F)c4F)CC3)c(-c3cnn(C)c3)nc2C1 [Compound 455, 1-[3-(1-methyl-1H-pyrazol-4-yl)-2-[4-(2,3,6-trifluorophenoxy)piperidin-1-yl]-5H,6H,7H,8H-pyrido[3,4-b]pyrazin-6-yl]ethan-1-one] | 
1000 to 30000 nM | 1000 to 30000 nM | CC(=O)N1CCc2nc(N3CCN(Cc4ccc(F)cc4F)C[C@H]3C)c(-c3cnn(C)c3)nc2C1 (single isomer, unassigned) [Compound 231] | 
1000 to 30000 nM | 1000 to 30000 nM | O=C(C1CNC1)N1CCc2nc(N3CCC(Oc4ccc(F)cc4F)CC3)c(-c3cn[nH]c3)nc2C1 [Compound 153, 1-[6-(azetidine-3-carbonyl)-3-(1H-pyrazol-4-yl)-5H,6H,7H,8H-pyrido[3,4-b]pyrazin-2-yl]-4-(2,4-difluorophenoxy)piperidine] | 
100 to 1000 nM | 1000 to 30000 nM | CCn1cc(-c2nc3c(nc2N2CCC(Oc4ccc(F)cc4F)CC2)CCN(C(=O)C(O)CO)C3)cn1 (stereo not drawn) [Compound 484, 1-{2-[4-(2,4-difluorophenoxy)piperidin-1-yl]-3-(1-ethyl-1H-pyrazol-4-yl)-5H,6H,7H,8H-pyrido[3,4-b]pyrazin-6-yl}-2,3-dihydroxypropan-1-one] | 
1000 to 30000 nM | 1000 to 30000 nM | O=C1CC(N2CCc3nc(N4CCC(Oc5ccc(F)cc5F)CC4)c(-c4cn[nH]c4)nc3C2)CN1 (stereo not drawn) [Compound 229, 4-{2-[4-(2,4-difluorophenoxy)piperidin-1-yl]-3-(1H-pyrazol-4-yl)-5H,6H,7H,8H-pyrido[3,4-b]pyrazin-6-yl}pyrrolidin-2-one] | 
≥ 30000 nM | 1000 to 30000 nM | CC(=O)N1CCc2nc(N3CCC(C(=O)N(C)c4ccc(F)cc4)C3)c(-c3cnn(C)c3)nc2C1 (stereo not drawn) [Compound 385, 1-[6-acetyl-3-(1-methyl-1H-pyrazol-4-yl)-5H,6H,7H,8H-pyrido[3,4-b]pyrazin-2-yl]-N-(4-fluorophenyl)-N-methylpyrrolidine-3-carboxamide] | 
≥ 30000 nM | 1000 to 30000 nM | Cn1cc(-c2nc3cnccc3nc2N2CCN(CC3CCOCC3)CC2)cn1 [Compound 242, 1-[3-(1-methyl-1H-pyrazol-4-yl)pyrido[3,4-b]pyrazin-2-yl]-4-[(oxan-4-yl)methyl]piperazine] | 
